The source of these data is patent US11767332B2, “Glucose-sensitive albumin-binding derivatives” (Novo Nordisk A/S, priority 2017, dated 2023).

Test [1] can be described thus: Alizarin red (ARS) assay, lactate binding affinity. As to conditions: 20 mM phosphate buffer pH 7.4, room temperature, N.D. = not detectable. As to the method:
(§1) The alizarin-red binding assay is a colorimetric assay used to determine the inhibition affinity of boronate compounds to glucose. The assay is based on a colour shift of alizarin-red upon binding to boronate, which shift can be followed by change in absorbance in the 330-340 nm region.
(§2) After 5 minutes of centrifugation at 4000 rpm, the plate is placed in a multi-well spectrometer (SpectraMax, Molecular Devices) for absorption detection.
(§3) The analysis is carried out at room temperature with absorption readings at 330, 340 and 520 nm, respectively. Data obtained for absorption versus concentration of boronate is then fitted (Prism 7, GraphPad) with a sigmoidal function to obtain the Kd value of boronate and ARS.
(§4) Upon complete dissolution of the compound, 200 μM of Alizarin red (ARS) is added to the solution. The ARS-boronate solution is then aliquoted into a 96 multiwell plate (black, flat and clear bottom) 1:1 with appropriate carbohydrate. In particular, D-glucose and L-lactate solutions are prepared in a 20 mM phosphate buffer pH 7.4 at these concentrations respectively: 1000, 500, 250, 100, 50, 25, 10, 5, 2.5, 1, 0.25, 0.1 mM and 2500, 1000, 500, 100, 50, 10, 5, 1, 0.5, 0.1, 0.05, 0.01 mM. The plate with ARS-boronate mixed with carbohydrate is incubated 20 minutes at room temperature. After 5 minutes of centrifugation at 4000 rpm the plate is placed in a multiwell spectrometer (Spectra Max, Molecular Devices) for absorption detection.
(§5) The analysis is carried out at room temperature with absorption readings at 330, 340 and 520 nm, respectively.

Test [2] in a line: Alizarin red (ARS) assay, glucose binding affinity. The conditions noted are these: 20 mM phosphate buffer pH 7.4, room temperature. As to the method: as §1, §2, §3, §4, §5
Test [3] concerns the target human serum albumin (HSA) (Homo sapiens (Human), UniProt P02768). Description: Fluorine (19F) NMR assay, glucose-sensitive albumin binding. As to conditions: 0.1 mM compound, 1 mM HSA, 50 mM glucose, pH 7.4. As to the method:
Diboron compound is dissolved at a 0.1 mM concentration in a 50 mM phosphate buffer pH 7.4, 10% deuterated water (D2O), and mixed with 0, 0.1, 0.2, 0.5, 1 and 2 mM human serum albumin (HSA). An additional sample with diboron compound in the presence of 1 mM HSA and 50 mM glucose is prepared.
The samples are then placed into 3 mm standard NMR tube (Bruker) and transferred for analysis to a 400 Mhz Bruker spectrometer equipped with a cryoprobe suitable for fluorine detection. The experiment is carried out with standard Bruker zgflqn pulse sequence at room temperature with enough scans to have a S/N ratio over 50 for the 0 mM HSA sample. The spectra are processed, visualized and compared by TopSpin program (Bruker).
The binding of diboron compound to HSA is qualitatively assessed by decrease of the fluorine signal of the diboron compound upon binding to HSA. Release of the diboron compound from HSA upon addition of glucose is assessed by reappearance/increase of fluorine signal in the spectra.

A short description of test [4]: Glucose affinity by 13C NMR assay. As to conditions: 1 mM glucose and 1 mM boronate, pH 7.4, 10 mM phosphate buffer, read-out: Binding Affinity [Kd Glucose (mM)] measured by 13C-NMR. An excerpt: The ^13C Glucose assay is an NMR based assay that takes advantage of the slow chemical shift exchange between the unbound glucose (A state) and the glucose bound to diboronates (B state). If
In a slow exchange regime NMR signals from both states (A and B) are observed and reflect the distinct chemical shifts of the two states as there is not significant interconversion in the timescale of the NMR experiments. Therefore the intensity of each peak directly reports on the population of that state.
The dissociation constant (Kd) could be defined as Kd=([A][B])/[AB], given At as the total concentration of specie A and Bt as total concentration of specie B, in the case in which At−Bt, the product at the equilibrium AB is given by the following equation:
[formula] so that knowing At, Bt and AB at the equilibrium is possible to determine Kd. […]
The samples are then investigated with a standard Carbon HSQC in a Bruker NMR instrument (RT, 32 scans). The intensities of the peaks of free glucose and glucose bound to boronates are determined by the use of TOPSPIN program (Bruker). Difference between intensity of free glucose and glucose bound peaks gives the concentration of product AB at the equilibrium so that Kd can be calculated using equation 1.

“Also recorded” adds a separate entry of the source.

The term Kd denotes a measure of binding affinity in units of concentration.

Chain of human serum albumin (HSA) (P02768 25-609): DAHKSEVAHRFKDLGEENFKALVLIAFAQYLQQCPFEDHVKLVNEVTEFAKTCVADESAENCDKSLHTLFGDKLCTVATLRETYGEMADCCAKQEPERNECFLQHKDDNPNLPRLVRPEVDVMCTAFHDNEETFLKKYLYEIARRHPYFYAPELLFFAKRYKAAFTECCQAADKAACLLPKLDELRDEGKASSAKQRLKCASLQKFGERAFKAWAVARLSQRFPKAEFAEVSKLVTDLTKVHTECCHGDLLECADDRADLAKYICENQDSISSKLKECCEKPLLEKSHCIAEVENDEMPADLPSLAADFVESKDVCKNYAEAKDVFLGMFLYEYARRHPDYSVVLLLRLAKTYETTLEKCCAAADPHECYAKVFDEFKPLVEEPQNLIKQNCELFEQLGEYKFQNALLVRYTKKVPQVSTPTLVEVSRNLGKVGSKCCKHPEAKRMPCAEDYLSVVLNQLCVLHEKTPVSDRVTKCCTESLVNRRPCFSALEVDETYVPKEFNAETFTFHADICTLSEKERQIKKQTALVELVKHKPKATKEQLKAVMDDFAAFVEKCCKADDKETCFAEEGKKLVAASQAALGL

With `O=C(O)CNC(=O)c1cc(B(O)O)cc(C(=O)c2cc(F)cc(B(O)O)c2)c1` [Example 22, (3-Borono-5-(3-borono-5-fluorobenzoyl)benzoyl)glycine], the Kd in test [1] was 20 mM; in test [2] it was 2 mM. Moreover, the “Glucose-dependent binding to albumin (19F-NMR signal)” value (“Glucose-dependent binding to albumin” for short) in test [3] is reported as “bind to albumin in a glucose-dependent manner”.

As for `O=C(O)CN(CCNC(=O)c1cc2c(c(C(F)(F)F)c1)COB2O)C(=O)c1cc2c(c(C(F)(F)F)c1)COB2O` [Example 25, N-(1-Hydroxy-4-(trifluoromethyl)-1,3-dihydrobenzo[c][1,2]oxaborole-6-carbonyl)-N-(2-(1-hydroxy-4-(trifluoromethyl)-1,3-dihydrobenzo[c][1,2]oxaborole-6-carboxamido)ethyl)glycine], the Kd came out at 11 mM in test [1] and 1.3 mM in test [2]. The “Glucose-dependent binding to albumin” value in test [3] was “bind to albumin in a glucose-dependent manner”.

Turning to `O=C(O)CN=S(=O)(c1cc(B(O)O)cc(C(F)(F)F)c1)c1cc(B(O)O)cc(C(F)(F)F)c1` [Example 30, 2-((Bis(3-borono-5-(trifluoromethyl)phenyl)(oxo)-λ6-sulfanylidene)amino)acetic acid], the Kd in test [4] was found to be 0.06 mM.

Regarding `NC(=O)CN(CCNC(=O)c1ccc(B(O)O)c(F)c1)C(=O)c1ccc(B(O)O)c(F)c1` [Example 3, N,N′-bis(4-borono-3-fluorobenzamido)-N-ethyl-glycine amide], the Kd turned out to be 16 mM in test [1] and 2.7 mM in test [2]. For the same compound, in test [3], the “Glucose-dependent binding to albumin” value was “bind to albumin in a glucose-dependent manner; also recorded: glucose-sensitive albumin binding”.

As for `O=C(NC[C@H](NC(=O)c1cc2c(c(C(F)(F)F)c1)COB2O)C(=O)O)c1cc2c(c(C(F)(F)F)c1)COB2O` [Example 26, (S)-2,3-Bis(1-hydroxy-4-(trifluoromethyl)-1,3-dihydrobenzo[c][1,2]oxaborole-6-carboxamido)propanoic acid], the Kd in test [1] is 10 mM; in test [2], 0.2 mM. In addition, the “Glucose-dependent binding to albumin” value in test [3] is reported as “bind to albumin in a glucose-dependent manner”.

Consider `O=C(O)CN(CCNC(=O)c1cc2c(cc1F)B(O)OC2)C(=O)c1cc2c(cc1F)B(O)OC2` [Example 9, N-(6-Fluoro-1-hydroxy-1,3-dihydrobenzo[c][1,2]oxaborole-5-carbonyl)-N-(2-(6-fluoro-1-hydroxy-1,3-dihydrobenzo[c][1,2]oxaborole-5-carboxamido)ethyl)glycine], for which the Kd in test [1] was 67.9 mM; in test [2], 2.6 mM.

Consider `O=C(O)CN=S(=O)(c1cc(Cl)cc(B(O)O)c1)c1cc(Cl)cc(B(O)O)c1` [Example 35, 2-((Bis(3-borono-5-chlorophenyl)(oxo)-λ6-sulfanylidene)amino)acetic acid], for which the Kd in test [1] stood at 20 mM; in test [2], 0.6 mM.

Regarding `O=C(O)CN(CCNC(=O)c1cc2c(cc1F)COB2O)C(=O)c1cc2c(cc1F)COB2O` [Example 7, N-(5-Fluoro-1-hydroxy-1,3-dihydrobenzo[c][1,2]oxaborole-6-carbonyl)-N-(2-(5-fluoro-1-hydroxy-1,3-dihydrobenzo[c][1,2]oxaborole-6-carboxamido)ethyl)glycine], the Kd came to 24.1 mM in test [1] and 1.5 mM in test [2].

Consider `O=C(NCC[C@H](NC(=O)c1ccc(B(O)O)c(F)c1)C(=O)O)c1ccc(B(O)O)c(F)c1` [Example 4, (S)-2,4-bis(4-borono-3-fluorobenzamido)butanoic acid], for which the Kd in test [1] amounted to 6.5 mM; in test [2], 2.6 mM.

`O=C(O)CN=S(=O)(c1cc(OC(F)(F)F)cc(B(O)O)c1)c1cc(OC(F)(F)F)cc(B(O)O)c1` [Example 44, 2-((Bis(3-borono-5-(trifluoromethoxy)phenyl)(oxo)-λ6-sulfanylidene)amino)acetic acid]: the Kd in test [1] worked out at 41 mM; in test [2], 0.8 mM.

With `O=C(O)CN(CCNC(=O)c1cc2c(c(C(F)F)c1)COB2O)C(=O)c1cc2c(c(C(F)F)c1)COB2O` [Example 31, N-(4-(Difluoromethyl)-1-hydroxy-1,3-dihydrobenzo[c][1,2]oxaborole-6-carbonyl)-N-(2-(4-(difluoromethyl)-1-hydroxy-1,3-dihydrobenzo[c][1,2]oxaborole-6-carboxamido)ethyl)glycine], the Kd in test [1] stood at 100 mM; in test [2], 0.8 mM.

As to `O=C(O)CNC(=O)c1cc(B(O)O)cc(C(F)(F)c2cc(B(O)O)cc(C(F)(F)F)c2)c1` [Example 18, (3-Borono-5-((3-borono-5-(trifluoromethyl)phenyl)difluoromethyl)benzoyl)glycine], the Kd amounted to 13 mM in test [1] and 0.4 mM in test [2].

As for `O=C(O)CN(CCNC(=O)c1cc(F)c2c(c1)B(O)OC2)C(=O)c1cc(F)c2c(c1)B(O)OC2` [Example 8, N-(4-Fluoro-1-hydroxy-1,3-dihydrobenzo[c][1,2]oxaborole-6-carbonyl)-N-(2-(4-fluoro-1-hydroxy-1,3-dihydrobenzo[c][1,2]oxaborole-6-carboxamido)ethyl)glycine], the Kd in test [1] was found to be 34 mM; in test [2], 2.7 mM.

For `O=C(O)CNC(=O)c1cc(B(O)O)cc(S(=O)(=O)c2cc(B(O)O)cc(C(F)(F)F)c2)c1` [Example 20], the Kd in test [1] is 31 mM; in test [2] it was 1.7 mM.
